For assay [1], the system named is multi-drug-resistant Acinetobacter baumannii (Ab) 5075. Description: MIC determination in Mueller-Hinton broth, A. baumannii 5075. In kind it is cell-based. The following applies: multi-drug-resistant A. baumannii Ab5075; standard Mueller-Hinton broth assay.
Assay [2] concerns Escherichia coli W3110 (wild-type). Description: MIC determination in Mueller-Hinton broth, E. coli W3110. The following applies: standard Mueller-Hinton broth assay. In kind it is cell-based.
The subject of assay [3] is E. coli WD101 (isogenic CAMP-resistant mutant, colistin-resistant). Nature of the assay: MIC determination in Mueller-Hinton broth, E. coli WD101. In kind it is cell-based, Escherichia coli. The following applies: standard Mueller-Hinton broth assay.

As a reminder, the MIC is the lowest concentration found to suppress growth. The low end stands for a more susceptible organism, the high end for a less susceptible organism. In assay [1], “N-XTRSSRAGLQFPVGRVHRLLRXK-C [DiHy buforin]” had an MIC of 64 µM.

Regarding “N-AlTRSSRAGLQFPVGRVHRLLRKF-Hy (sidechain bridge or staple) [HyRes buforin]”, the MIC was 8 µM in assay [2], 4 µM in assay [1] and 16 µM in assay [3].

In assay [1], “N-XTRSSRAGLQFPXVGRVHRLLRXK-C [TriAl buforin]” returned a minimal inhibitory concentration (MIC) of 64 µM.

The values above are taken from paper PMC5942189 (Journal of the American Chemical Society, 2018).
